Measurements as given in patent US5041567A, “Antibacterial monic acid derivatives” (Beecham Group plc, priority 1982, dated 1991).
Converted amounts (≈) assume the structure as drawn. Like-named read-outs stand apart in the source and are kept apart here.

Experiments:
M. suipneumoniae JF 435 = test: MIC against mycoplasma in vitro; format: cell-based; conditions: Mesomycoplasma hyopneumoniae, JF435, 144 h
M. suipneumoniae Str. 11 = test: MIC against mycoplasma in vitro; format: cell-based; conditions: Mesomycoplasma hyopneumoniae
[1] = tested on: M. suipneumoniae PW/C/210; test: MIC against mycoplasma in vitro; format: cell-based; conditions: Mesomycoplasma hyopneumoniae, 144 h
[2] = tested on: M. suipneumoniae NCTC 10110; test: MIC against mycoplasma in vitro; format: cell-based; conditions: Mesomycoplasma hyopneumoniae, NCTC10110, 144 h
M. dispar NCTC 10125 = test: MIC against mycoplasma in vitro; format: cell-based; conditions: 144 h
M. gallisepticum S6 = test: MIC against mycoplasma in vitro; format: cell-based; conditions: Mycoplasmoides gallisepticum
M. pneumoniae ATCC 15492 = test: MIC against mycoplasma in vitro; format: cell-based; conditions: Mycoplasmoides pneumoniae, ATCC15492, 144 h
E. coli NCTC 10418 [3] = test: MIC against human bacteria in vitro; format: cell-based; conditions: Escherichia coli, NCTC10418; E. coli NCTC 10418; agar with 5% chocolated horse blood, 18 hours, 37° C.; read-out: MIC
E. coli ESS = test: MIC against human bacteria in vitro; format: cell-based; conditions: Escherichia coli; E. coli ESS; 5% chocolated horse blood agar, 18 hours; read-out: MIC
[4] = tested on: Pasteurella multocida 1633; test: MIC against human bacteria in vitro; format: cell-based
[5] = tested on: Haemophilus influenzae Q1; test: MIC against human bacteria in vitro; format: cell-based; conditions: Haemophilus influenzae Q1; 5% chocolated horse blood agar, 18 hours; read-out: MIC
Bacillus subtilis 6633 = test: MIC against human bacteria in vitro; format: cell-based; conditions: Bacillus subtilis 6633; 5% chocolated horse blood agar, 18 hours; read-out: MIC
Staph. aureus Oxford [6] = test: MIC against human bacteria in vitro; format: cell-based; conditions: Staphylococcus aureus; Staph. aureus Oxford; 5% chocolated horse blood agar, 18 hours; read-out: MIC
E. coli NCTC 10418 [7] = test: MIC against veterinary bacteria in vitro; conditions: Escherichia coli, NCTC10418, 18 h
Procedure: (§1) The activity of the compounds of the Examples against various veterinarily important bacteria, was assayed in vitro using two-fold serial dilutions in Diagnostic Sensitivity Test Agar inoculated with 10^4 organisms.

E. coli E1 = test: MIC against veterinary bacteria in vitro; conditions: Escherichia coli, E1, 18 h
Procedure: as §1

S. dublin S7 = test: MIC against veterinary bacteria in vitro; conditions: Salmonella enterica, S7, 18 h
Procedure: as §1

S. typhimurium S18 = test: MIC against veterinary bacteria in vitro; conditions: Salmonella enterica, TYPHIMURIUM, 18 h
Procedure: as §1

[8] = tested on: Staph. aureus 152 (pen. sens); test: MIC against veterinary bacteria in vitro; conditions: Staphylococcus aureus, 18 h
Procedure: as §1

Staph. aureus Oxford [9] = test: MIC against veterinary bacteria in vitro; conditions: Staphylococcus aureus, 18 h
Procedure: as §1

Strep. uberis SPU1 = test: MIC against veterinary bacteria in vitro; conditions: Streptococcus uberis, SPU1, 18 h
Procedure: as §1

Strep. agalactiae SPA1 = test: MIC against veterinary bacteria in vitro; conditions: Streptococcus agalactiae, SPA1, 18 h
Procedure: as §1

[10] = tested on: Strep. pyogenes R80/421-A; test: MIC against human bacteria in vitro; format: cell-based; conditions: Streptococcus pyogenes; Strep. pyogenes R80/421-A; 5% chocolated horse blood agar, 18 hours; read-out: MIC
[11] = M. suipneumoniae JF 435, 6 days, 37° C., read-out: MIC
[12] = 144 h, M. suipneumoniae Str. 11, 6 days, 37° C., read-out: MIC
[13] = 144 h, M. gallisepticum S6, 6 days, 37° C., read-out: MIC
[14] = M. pneumoniae ATCC 15492, 6 days, 37° C., read-out: MIC
[15] = Pasteurella multocida 1633, 5% chocolated horse blood agar, 18 hours, read-out: MIC

C/C(=C\c1ncc(-c2cccc(C#N)c2)o1)C[C@@H]1OC[C@H](C[C@@H]2O[C@H]2[C@@H](C)[C@H](C)O)[C@@H](O)[C@H]1O [Example 5, 5-m-cyanophenyl-2-(1-normon-2-yl)oxazole A]
MIC (M. suipneumoniae JF 435; [11]): 0.1 µg/mL (≈ 0.213 µM) | MIC (M. suipneumoniae Str. 11; [12]): 0.05 µg/mL (≈ 0.107 µM) | MIC ([1]; M. suipneumoniae PW/C/210, 6 days, 37° C., read-out: MIC): 0.05 µg/mL (≈ 0.107 µM) | MIC [2]: 0.1 µg/mL (≈ 0.213 µM) | MIC (M. dispar NCTC 10125): 0.025 µg/mL (≈ 0.0534 µM) | MIC (M. gallisepticum S6; [13]): 0.5 µg/mL (≈ 1.07 µM) | MIC (M. pneumoniae ATCC 15492): 0.25 µg/mL (≈ 0.534 µM) | MIC (E. coli NCTC 10418 [3]): > 50 µg/mL | MIC (E. coli ESS): 1.2 µg/mL (≈ 2.56 µM) | MIC ([4]; Pasteurella multocida, 1633, 18 h): 5 µg/mL (≈ 10.7 µM) | MIC [5]: 1.2 µg/mL (≈ 2.56 µM) | MIC (Bacillus subtilis 6633): 1.2 µg/mL (≈ 2.56 µM) | MIC (Staph. aureus Oxford [6]): 1.2 µg/mL (≈ 2.56 µM) | MIC (E. coli NCTC 10418 [7]): > 80 µg/mL | MIC (E. coli E1): > 80 µg/mL | MIC (S. dublin S7): > 80 µg/mL | MIC (S. typhimurium S18): > 80 µg/mL | MIC [8]: 0.625 µg/mL (≈ 1.33 µM) | MIC (Staph. aureus Oxford [9]): 0.625 µg/mL (≈ 1.33 µM) | MIC (Strep. uberis SPU1): 0.07 µg/mL (≈ 0.149 µM) | MIC (Strep. agalactiae SPA1): 0.625 µg/mL (≈ 1.33 µM)

C/C(=C\c1ncc(-c2cccc([N+](=O)[O-])c2)o1)C[C@@H]1OC[C@H](C[C@@H]2O[C@H]2[C@@H](C)[C@H](C)O)[C@@H](O)[C@H]1O [Example 6, 5-m-nitrophenyl-2-(1-normon-2-yl)oxazole A]
MIC (M. suipneumoniae JF 435): 0.05 µg/mL (≈ 0.102 µM) | MIC (M. suipneumoniae Str. 11; STR.11, 144 h): 0.05 µg/mL (≈ 0.102 µM) | MIC [1]: 0.025 µg/mL (≈ 0.0512 µM) | MIC [2]: 0.05 µg/mL (≈ 0.102 µM) | MIC (M. dispar NCTC 10125): 0.025 µg/mL (≈ 0.0512 µM) | MIC (M. gallisepticum S6; [13]): 1 µg/mL (≈ 2.05 µM) | MIC (M. pneumoniae ATCC 15492; [14]): 1 µg/mL (≈ 2.05 µM) | MIC (E. coli NCTC 10418 [3]): > 128 µg/mL | MIC (E. coli ESS): 16 µg/mL (≈ 32.8 µM) | MIC [4, 15]: 16 µg/mL (≈ 32.8 µM) | MIC [5]: 2 µg/mL (≈ 4.09 µM) | MIC (Bacillus subtilis 6633): 2 µg/mL (≈ 4.09 µM) | MIC (Staph. aureus Oxford [6]): 8 µg/mL (≈ 16.4 µM) | MIC [10]: 4 µg/mL (≈ 8.19 µM) | MIC (E. coli NCTC 10418 [7]): > 80 µg/mL | MIC (E. coli E1): > 80 µg/mL | MIC (S. dublin S7): > 80 µg/mL | MIC (S. typhimurium S18): > 80 µg/mL | MIC (Staph. aureus Oxford [9]): 1.25 µg/mL (≈ 2.56 µM) | MIC (Strep. uberis SPU1): 0.07 µg/mL (≈ 0.143 µM) | MIC (Strep. agalactiae SPA1): 2.5 µg/mL (≈ 5.12 µM)

C/C(=C\c1ncc(C)o1)C[C@@H]1OC[C@H](C[C@@H]2O[C@H]2[C@@H](C)[C@H](C)O)[C@@H](O)[C@H]1O [Example 14, 5-Methyl-2-(1-normon-2-yl) oxazole A]
MIC (M. suipneumoniae JF 435): 5 µg/mL (≈ 13.1 µM) | MIC (M. suipneumoniae Str. 11; STR.11, 144 h): 2.5 µg/mL (≈ 6.55 µM) | MIC [1]: 2.5 µg/mL (≈ 6.55 µM) | MIC [2]: 5 µg/mL (≈ 13.1 µM) | MIC (M. dispar NCTC 10125; M. dispar NCTC 10125, 6 days, 37° C., read-out: MIC): 0.5 µg/mL (≈ 1.31 µM) | MIC (M. gallisepticum S6; [13]): > 10 µg/mL | MIC (M. pneumoniae ATCC 15492; [14]): > 10 µg/mL | MIC (E. coli NCTC 10418 [3]): > 128 µg/mL | MIC (E. coli ESS): 32 µg/mL (≈ 83.9 µM) | MIC [4, 15]: 16 µg/mL (≈ 41.9 µM) | MIC [5]: 2 µg/mL (≈ 5.24 µM) | MIC (Bacillus subtilis 6633): 4 µg/mL (≈ 10.5 µM) | MIC (Staph. aureus Oxford [6]): 16 µg/mL (≈ 41.9 µM) | MIC [10]: 32 µg/mL (≈ 83.9 µM) | MIC (E. coli NCTC 10418 [7]): > 80 µg/mL | MIC (E. coli E1): > 80 µg/mL | MIC (S. dublin S7): > 80 µg/mL | MIC (S. typhimurium S18): > 80 µg/mL | MIC [8]: 10 µg/mL (≈ 26.2 µM) | MIC (Staph. aureus Oxford [9]): 10 µg/mL (≈ 26.2 µM) | MIC (Strep. uberis SPU1): 2.5 µg/mL (≈ 6.55 µM) | MIC (Strep. agalactiae SPA1): > 80 µg/mL

C/C(=C\c1ncc(-c2ccc(C=O)cc2)o1)C[C@@H]1OC[C@H](C[C@@H]2O[C@H]2[C@@H](C)[C@H](C)O)[C@@H](O)[C@H]1O [Example 15, 5-p-Formylphenyl-2-(1-normon-2-yl) oxazole A]
MIC (M. suipneumoniae JF 435; [11]): 0.5 µg/mL (≈ 1.06 µM) | MIC (M. suipneumoniae Str. 11; [12]): 0.5 µg/mL (≈ 1.06 µM) | MIC [1]: 0.25 µg/mL (≈ 0.53 µM) | MIC ([2]; M. suipneumoniae NCTC 10110, 6 days, 37° C., read-out: MIC): 0.5 µg/mL (≈ 1.06 µM) | MIC (M. dispar NCTC 10125): 0.1 µg/mL (≈ 0.212 µM) | MIC (M. gallisepticum S6; S6, 144 h): 1 µg/mL (≈ 2.12 µM) | MIC (M. pneumoniae ATCC 15492): 1 µg/mL (≈ 2.12 µM) | MIC (E. coli NCTC 10418 [3]): > 128 µg/mL | MIC (E. coli ESS): 16 µg/mL (≈ 33.9 µM) | MIC [4, 15]: 32 µg/mL (≈ 67.9 µM) | MIC [5]: 4 µg/mL (≈ 8.48 µM) | MIC (Bacillus subtilis 6633): 2 µg/mL (≈ 4.24 µM) | MIC (Staph. aureus Oxford [6]): 2 µg/mL (≈ 4.24 µM) | MIC [10]: 8 µg/mL (≈ 17 µM) | MIC (E. coli NCTC 10418 [7]): > 80 µg/mL | MIC (E. coli E1): > 80 µg/mL | MIC (S. dublin S7): > 80 µg/mL | MIC (S. typhimurium S18): > 80 µg/mL | MIC [8]: 0.625 µg/mL (≈ 1.33 µM) | MIC (Staph. aureus Oxford [9]): 1.25 µg/mL (≈ 2.65 µM) | MIC (Strep. uberis SPU1): 0.625 µg/mL (≈ 1.33 µM) | MIC (Strep. agalactiae SPA1): 1.25 µg/mL (≈ 2.65 µM)
